According to patent US20140045860A1, “SMALL MOLECULE INHIBITORS FOR TREATING PARASITIC INFECTIONS” (NEW YORK UNIVERSITY, priority 2011, published 2014):
Values joined by “and” are separate entries in the source; they are usually repeats but may differ in a detail not shown here. Equal entries are not always repeated.

system: T. b. rhod.; test: In vitro counter screen, T. b. rhod.; type: cell-based; details: read-out: T. b. rhod. (IC50, ug/mL)
Experimental: (§1) In vitro counter screens were performed to confirm our findings.

First: C[C@H](CO)N1C[C@H](C)[C@H](CN(C)Cc2ccccc2)Oc2c(NC(=O)c3ccncc3)cccc2C1=O [Compound 1]
Second: C[C@@H]1CN([C@H](C)CO)C(=O)c2cccc(NC(=O)c3ccncc3)c2O[C@H]1CN(C)Cc1ccccc1 [Compound 9]
The IC50 of the first is 2.1-fold higher: 75.4 µg/mL for the first, 35.1 µg/mL for the second.

First: COc1ccc(CN(C)C[C@@H]2Oc3c(NC(=O)c4ccncc4)cccc3C(=O)N([C@H](C)CO)C[C@H]2C)cc1 [Compound 5]
Second: C[C@@H]1CN([C@@H](C)CO)C(=O)c2cccc(NC(=O)c3ccncc3)c2O[C@H]1CN(C)Cc1ccc(-c2ccccc2)cc1 [Compound 7]
The IC50 of the first is 28-fold higher: 20.2 µg/mL for the first, 0.729 µg/mL for the second.

same assay, conditions: same result as ug/mL, in uM; read-out: T. b. rhod (IC50 uM)

Going from `C[C@H](CO)N1C[C@H](C)[C@H](CN(C)Cc2ccccc2)Oc2c(NC(=O)c3ccncc3)cccc2C1=O` [Compound 1] to `C[C@@H]1CN([C@H](C)CO)C(=O)c2cccc(NC(=O)c3ccncc3)c2O[C@H]1CN(C)Cc1ccccc1` [Compound 9], the IC50 falls from 150 µM to 69.8 µM (2.1-fold).

Going from `COc1ccc(CN(C)C[C@@H]2Oc3c(NC(=O)c4ccncc4)cccc3C(=O)N([C@H](C)CO)C[C@H]2C)cc1` [Compound 5] to `C[C@@H]1CN([C@@H](C)CO)C(=O)c2cccc(NC(=O)c3ccncc3)c2O[C@H]1CN(C)Cc1ccc(-c2ccccc2)cc1` [Compound 7], the IC50 falls from 37.9 µM to 1.26 µM (30-fold).

system: T. cruzi; test: In vitro counter screen, T. cruzi; type: cell-based; details: Trypanosoma cruzi, read-out: T. cruzi (IC50 uM)
Experimental: A high-throughput screen of small molecules was performed in duplicate in the recombinant Tulahuen strain of T. cruzi stably expressing a beta-galactosidase reporter gene. Trypomastogote-stage parasites were co-cultured with mouse fibroblast NIH/3T3 host cells, (Buckner F S, Verlinde C L, La Flamme A C, Van Voorhis W C. Efficient technique for screening drugs for activity against Trypanosoma cruzi using parasites expressing beta-galactosidase. Antimicrob Agents Chemother. 1996; 40(11): 2592-2597). Signal was normalized to neutral (DMSO) controls, and a 75% inhibition cutoff was used to define a hit. Compounds initially designated as hits were retested in dose in the primary assay to confirm their inhibitory activity. In parallel, compounds were tested in toxicity assays against NIH/3T3 host cells to determine if these compounds were cytotoxic to mammalian cells and thus, false positives. Compounds that reduced the viability of NIH/3T3 cells were excluded as viable hits. A subset of hits were then tested in a similar infection assay with the Tulahuen strain of T. cruzi infecting murine L-6 cells and the intracellular T. cruzi immunofluorescence assay described below.
as §1

Compared with `C[C@H](CO)N1C[C@H](C)[C@H](CN(C)Cc2ccccc2)Oc2c(NC(=O)c3ccncc3)cccc2C1=O` [Compound 1], `C[C@@H]1CN([C@H](C)CO)C(=O)c2cccc(NC(=O)c3ccncc3)c2O[C@H]1CN(C)Cc1ccccc1` [Compound 9] is 4.1-fold lower in IC50: 1.24 µM for the first, 0.304 µM for the second.

Compared with `COc1ccc(CN(C)C[C@@H]2Oc3c(NC(=O)c4ccncc4)cccc3C(=O)N([C@H](C)CO)C[C@H]2C)cc1` [Compound 5], `C[C@@H]1CN([C@@H](C)CO)C(=O)c2cccc(NC(=O)c3ccncc3)c2O[C@H]1CN(C)Cc1ccc(-c2ccccc2)cc1` [Compound 7] is 11-fold lower in IC50: 1.31 µM for the first, 0.123 µM for the second. The second is the more potent here.

same assay, conditions: Trypanosoma cruzi, read-out: T. cruzi IC50 (ug/mL)

Compared with `C[C@H](CO)N1C[C@H](C)[C@H](CN(C)Cc2ccccc2)Oc2c(NC(=O)c3ccncc3)cccc2C1=O` [Compound 1], `C[C@@H]1CN([C@H](C)CO)C(=O)c2cccc(NC(=O)c3ccncc3)c2O[C@H]1CN(C)Cc1ccccc1` [Compound 9] is 4.1-fold lower in IC50: 0.622 µg/mL for the first, 0.153 µg/mL for the second.

First: COc1ccc(CN(C)C[C@@H]2Oc3c(NC(=O)c4ccncc4)cccc3C(=O)N([C@H](C)CO)C[C@H]2C)cc1 [Compound 5]
Second: C[C@@H]1CN([C@@H](C)CO)C(=O)c2cccc(NC(=O)c3ccncc3)c2O[C@H]1CN(C)Cc1ccc(-c2ccccc2)cc1 [Compound 7]
The IC50 of the first is 9.8-fold higher: 0.699 µg/mL for the first, 0.071 µg/mL for the second.

system: L. don. axen.; test: In vitro counter screen, L. don. axen.; type: cell-based; details: read-out: L. don. axen. IC50
Experimental: as §1

First: C[C@H](CO)N1C[C@H](C)[C@H](CN(C)Cc2ccccc2)Oc2c(NC(=O)c3ccncc3)cccc2C1=O [Compound 1]
Second: C[C@@H]1CN([C@H](C)CO)C(=O)c2cccc(NC(=O)c3ccncc3)c2O[C@H]1CN(C)Cc1ccccc1 [Compound 9]
The IC50 of the first is higher: greater than 100 µg/mL for the first, 84.4 µg/mL for the second.

Compared with `COc1ccc(CN(C)C[C@@H]2Oc3c(NC(=O)c4ccncc4)cccc3C(=O)N([C@H](C)CO)C[C@H]2C)cc1` [Compound 5], `C[C@@H]1CN([C@@H](C)CO)C(=O)c2cccc(NC(=O)c3ccncc3)c2O[C@H]1CN(C)Cc1ccc(-c2ccccc2)cc1` [Compound 7] is lower in IC50: greater than 100 µg/mL for the first, 13.3 µg/mL for the second.

same assay, conditions: same result as ug/mL, in uM; read-out: L. don. Axen (IC50 uM)

Compared with `C[C@H](CO)N1C[C@H](C)[C@H](CN(C)Cc2ccccc2)Oc2c(NC(=O)c3ccncc3)cccc2C1=O` [Compound 1], `C[C@@H]1CN([C@H](C)CO)C(=O)c2cccc(NC(=O)c3ccncc3)c2O[C@H]1CN(C)Cc1ccccc1` [Compound 9] is lower in IC50: greater than 199 µM for the first, 168 µM for the second. The second is the more potent here.

Compared with `COc1ccc(CN(C)C[C@@H]2Oc3c(NC(=O)c4ccncc4)cccc3C(=O)N([C@H](C)CO)C[C@H]2C)cc1` [Compound 5], `C[C@@H]1CN([C@@H](C)CO)C(=O)c2cccc(NC(=O)c3ccncc3)c2O[C@H]1CN(C)Cc1ccc(-c2ccccc2)cc1` [Compound 7] is lower in IC50: greater than 188 µM for the first, 23 µM for the second. The second is the more potent here.

system: P. falc. K1; test: In vitro counter screen, P. falc. K1; type: cell-based; details: read-out: P. falc. K1 IC50
Experimental: as §1

First: C[C@H](CO)N1C[C@H](C)[C@H](CN(C)Cc2ccccc2)Oc2c(NC(=O)c3ccncc3)cccc2C1=O [Compound 1]
Second: C[C@@H]1CN([C@H](C)CO)C(=O)c2cccc(NC(=O)c3ccncc3)c2O[C@H]1CN(C)Cc1ccccc1 [Compound 9]
The IC50 of the first is 4.3-fold higher: 20.6 µg/mL for the first, 4.83 µg/mL for the second.

First: COc1ccc(CN(C)C[C@@H]2Oc3c(NC(=O)c4ccncc4)cccc3C(=O)N([C@H](C)CO)C[C@H]2C)cc1 [Compound 5]
Second: C[C@@H]1CN([C@@H](C)CO)C(=O)c2cccc(NC(=O)c3ccncc3)c2O[C@H]1CN(C)Cc1ccc(-c2ccccc2)cc1 [Compound 7]
The IC50 of the first is 6.2-fold higher: 7.39 µg/mL for the first, 1.2 µg/mL for the second.

same assay, conditions: same result as ug/mL, in uM; read-out: P. falc. K1 (IC50 uM)

Compared with `C[C@H](CO)N1C[C@H](C)[C@H](CN(C)Cc2ccccc2)Oc2c(NC(=O)c3ccncc3)cccc2C1=O` [Compound 1], `C[C@@H]1CN([C@H](C)CO)C(=O)c2cccc(NC(=O)c3ccncc3)c2O[C@H]1CN(C)Cc1ccccc1` [Compound 9] is 4.3-fold lower in IC50: 41 µM for the first, 9.61 µM for the second.

Compared with `COc1ccc(CN(C)C[C@@H]2Oc3c(NC(=O)c4ccncc4)cccc3C(=O)N([C@H](C)CO)C[C@H]2C)cc1` [Compound 5], `C[C@@H]1CN([C@@H](C)CO)C(=O)c2cccc(NC(=O)c3ccncc3)c2O[C@H]1CN(C)Cc1ccc(-c2ccccc2)cc1` [Compound 7] is 6.7-fold lower in IC50: 13.9 µM for the first, 2.07 µM for the second. The second is the more potent here.

system: not listed separately; test: In vitro counter screen, cytotoxicity L6; type: cell-based; details: murine

With `C[C@H](CO)N1C[C@H](C)[C@H](CN(C)Cc2ccccc2)Oc2c(NC(=O)c3ccncc3)cccc2C1=O` [Compound 1] the IC50 was > 199 µM and > 100 µg/mL.
For `COc1ccc(CN(C)C[C@@H]2Oc3c(NC(=O)c4ccncc4)cccc3C(=O)N([C@H](C)CO)C[C@H]2C)cc1` [Compound 5], the IC50 was > 188 µM and > 100 µg/mL.
In the case of `C[C@@H]1CN([C@@H](C)CO)C(=O)c2cccc(NC(=O)c3ccncc3)c2O[C@H]1CN(C)Cc1ccc(-c2ccccc2)cc1` [Compound 7], the IC50 is reported as 23.3 µM and 13.5 µg/mL.
For `C[C@@H]1CN([C@H](C)CO)C(=O)c2cccc(NC(=O)c3ccncc3)c2O[C@H]1CN(C)Cc1ccccc1` [Compound 9], the IC50 was > 199 µM and > 100 µg/mL.
